What is called IC50 is the midpoint of a concentration-inhibition curve.

In the assay the target is T1, MAGL (Homo sapiens, UniProt Q99685).
T1 sequence (Q99685 1-303): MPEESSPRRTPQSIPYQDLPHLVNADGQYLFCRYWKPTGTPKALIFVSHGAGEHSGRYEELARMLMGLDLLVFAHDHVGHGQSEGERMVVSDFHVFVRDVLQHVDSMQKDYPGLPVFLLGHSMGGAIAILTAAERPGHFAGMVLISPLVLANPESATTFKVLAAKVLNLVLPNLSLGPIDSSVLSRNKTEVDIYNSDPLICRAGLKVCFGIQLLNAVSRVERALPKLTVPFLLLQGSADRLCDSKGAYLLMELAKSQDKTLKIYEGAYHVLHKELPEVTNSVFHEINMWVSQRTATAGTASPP
The assay can be described thus: MAGL inhibition, Table 1 values with no assay marker (2-AG or 4-NPA assay not stated). It counts as biochemical. As for the experimental part:
Compounds were profiled for MAGL inhibitory activity by measuring the enzymatic activity of MAGL by following the hydrolysis of 4-nitrophenylacetate resulting in 4-nitrophenol, which absorbs at 405-412 nm (G. G. Muccioli, G. Labar, D. M. Lambert, Chem. Bio. Chem. 2008, 9, 2704-2710). This assay is hereinafter abbreviated “4-NPA assay”.
The 4-NPA assay was carried out in 384 well assay plates (black with clear bottom, non-binding surface treated, Corning Ref. 3655) in a total volume of 40 μL. Compound dilutions were made in 100% DMSO (VWR Chemicals 23500.297) in a polypropylene plate in 3-fold dilution steps to give a final concentration range in the assay from 25 μM to 1.7 nM. 1 μL compound dilutions (100% DMSO) were added to 19 μL MAGL (recombinant wild-type) in assay buffer (50 mM TRIS (GIBCO, 15567-027), 1 mM EDTA (Fluka, 03690-100 ml)). The plate was shaked for 1 min at 2000 rpm (Variomag Teleshake) and then incubated for 15 min at RT. To start the reaction, 20 μL 4-Nitrophenylacetate (Sigma N-8130) in assay buffer with 6% EtOH was added. The final concentrations in the assay were 1 nM MAGL and 300 μM 4-Nitrophenylacetate. After shaking (1 min, 2000 rpm) and 5 min incubation at RT, the absorbance at 405 nm was measured for a first time (Molecular Devices, SpectraMax Paradigm). A second measurement was then done after incubation for 80 min at RT. From the two measurements, the slope was calculated by subtracting the first from the second measurement.
Alternatively, compounds were profiled for MAGL inhibitory activity by determining the enzymatic activity by following the hydrolysis of the natural substrate 2-arachidonoylglycerol resulting in arachidonic acid, which can be followed by mass spectrometry. This assay is hereinafter abbreviated “2-AG assay”.
The 2-AG assay was carried out in 384 well assay plates (PP, Greiner Cat #784201) in a total volume of 20 μL. Compound dilutions were made in 100% DMSO (VWR Chemicals 23500.297) in a polypropylene plate in 3-fold dilution steps to give a final concentration range in the assay from 12.5 μM to […]. 0.25 μL compound dilutions (100% DMSO) were added to 9 μL MAGL in assay buffer (50 mM TRIS (GIBCO, 15567-027), 1 mM EDTA (Fluka, 03690-100 ml), 0.01% (v/v) Tween. After shaking, the plate was incubated for 15 min at RT. To start the reaction, 10 μL 2-arachidonoylglycerol in assay buffer was added. The final concentrations in the assay was […] and 8 μM 2-arachidonoylglycerol. After shaking and 30 min incubation at RT, the reaction was quenched by the addition of 40 μL of acetonitrile containing 4 μM of d8-arachidonic acid. The amount of arachidonic acid was traced by an online SPE system (Agilent Rapidfire) coupled to a triple quadrupole mass spectrometer (Agilent 6460). A C18 SPE cartridge (G9205A) was used in an acetonitrile/water liquid setup. The mass spectrometer was operated in negative electrospray mode following the mass transitions 303.1→259.1 for arachidonic acid and 311.1→267.0 for d8-arachidonic acid. The activity of the compounds was calculated based on the ratio of intensities [arachidonic acid/d8-arachidonic acid].
On to `O=C1CO[C@H]2CCN(C(=O)N3CC4(CC(c5ccc(N6CCCC6C(F)(F)F)cc5)C4)C3)C[C@H]2N1` (stereo partly drawn) [Example 47, (4aR,8aS)-6-(6-(4-(2-(trifluoromethyl)pyrrolidin-1-yl)phenyl)-2-azaspiro[3.3]heptane-2-carbonyl)hexahydro-2H-pyrido[4,3-b][1,4]oxazin-3(4H)-one], for which the IC50 was found to be 39.8 nM. This counts as double-digit nanomolar. The result for `Cn1nccc1-c1ccc(C2CC3(C2)CN(C(=O)N2CC[C@@H]4OCC(=O)N[C@@H]4C2)C3)cc1` [Example 48, (4aR,8aS)-6-(6-(4-(1-methyl-1H-pyrazol-5-yl)phenyl)-2-azaspiro[3.3]heptane-2-carbonyl)hexahydro-2H-pyrido[4,3-b][1,4]oxazin-3(4H)-one] reads 223 nM.

Molecule `O=C1CO[C@H]2CCN(C(=O)N3CC4(CC(Cc5ccc(C(F)(F)F)cc5F)C4)C3)C[C@H]2N1` [Example 49, (4aR,8aS)-6-(6-(2-fluoro-4-(trifluoromethyl)benzyl)-2-azaspiro[3.3]heptane-2-carbonyl)hexahydro-2H-pyrido[4,3-b][1,4]oxazin-3(4H)-one] had an IC50 of 0.03 nM.

For the molecule `O=C1CO[C@H]2CCN(C(=O)N3CC4(CC(Cc5ccc(F)cc5Cl)C4)C3)C[C@H]2N1` [Example 50, (4aR,8aS)-6-(6-(2-chloro-4-fluorobenzyl)-2-azaspiro[3.3]heptane-2-carbonyl)hexahydro-2H-pyrido[4,3-b][1,4]oxazin-3(4H)-one], the IC50 turned out to be 0.04 nM. The result for `O=C1CO[C@H]2CCN(C(=O)N3CC4(CC(Cc5ccc(F)cc5F)C4)C3)C[C@H]2N1` [Example 51, (4aR,8aS)-6-(6-(2,4-difluorobenzyl)-2-azaspiro[3.3]heptane-2-carbonyl)hexahdyro-2H-pyrido[4,3-b][1,4]oxazin-3(4H)-one] reads 0.17 nM. In the case of `COc1cc(C(F)(F)F)ccc1CC1CC2(C1)CN(C(=O)N1CC[C@@H]3OCC(=O)N[C@@H]3C1)C2` [Example 52, (4aR,8aS)-6-(6-(2-methoxy-4-(trifluoromethyl)benzyl)-2-azaspiro[3.3]heptane-2-carbonyl)hexahydro-2H-pyrido[4,3-b][1,4]oxazin-3(4H)-one], the IC50 came to 0.03 nM. Take `O=C1CO[C@H]2CCN(C(=O)N3CC4(CC(Cc5c(F)cccc5C(F)(F)F)C4)C3)C[C@H]2N1` [Example 53, (4aR,8aS)-6-(6-(2-fluoro-6-(trifluoromethyl)benzyl)-2-azaspiro[3.3]heptane-2-carbonyl)hexahydro-2H-pyrido[4,3-b][1,4]oxazin-3(4H)-one]: the IC50 came out at 0.05 nM. With `O=C1CO[C@H]2CCN(C(=O)N3CC4(CC(COc5ccc(F)cc5Cl)C4)C3)C[C@H]2N1` [Example 54, (4aR,8aS)-6-(6-((2-chloro-4-fluorophenoxy)methyl)-2-azaspiro[3.3]heptane-2-carbonyl)hexahydro-2H-pyrido[4,3-b][1,4]oxazin-3(4H)-one] the figure was 1.46 nM; with `O=C1CO[C@H]2CCN(C(=O)N3CC4(C3)CN(c3ccc(C(F)(F)F)cc3)C4)C[C@H]2N1` [Example 55, (4aR,8aS)-6-(6-(4-(trifluoromethyl)phenyl)-2,6-diazaspiro[3.3]heptane-2-carbonyl)hexahydro-2H-pyrido[4,3-b][1,4]oxazin-3(4H)-one], 1040 nM; with `O=C1CO[C@H]2CCN(C(=O)N3CC4(C3)CN(c3cccc(C(F)(F)F)c3)C4)C[C@H]2N1` [Example 56, (4aR,8aS)-6-(6-(3-(trifluoromethyl)phenyl)-2,6-diazaspiro[3.3]heptane-2-carbonyl)hexahydro-2H-pyrido[4,3-b][1,4]oxazin-3(4H)-one], 361 nM. `O=C1CO[C@H]2CCN(C(=O)N3CCC4(C3)CN(c3ccc(C(F)(F)F)cc3)C4)C[C@H]2N1` [Example 57, (4aR,8aS)-6-(2-(4-(trifluoromethyl)phenyl)-2,6-diazaspiro[3.4]octane-6-carbonyl)hexahydro-2H-pyrido[4,3-b][1,4]oxazin-3(4H)-one]: the IC50 turned out to be 175 nM. Against the preceding molecule, the IC50 is about 2.1-fold lower. The molecule `O=C1CO[C@H]2CCN(C(=O)N3CCC4(C3)CN(c3cccc(C(F)(F)F)c3)C4)C[C@H]2N1` [Example 58, (4aR,8aS)-6-(2-(3-(trifluoromethyl)phenyl)-2,6-diazaspiro[3.4]octane-6-carbonyl)hexahydro-2H-pyrido[4,3-b][1,4]oxazin-3(4H)-one] returned an IC50 of 70.7 nM. With `CC(C)Oc1ccc(N2CC3(CCN(C(=O)N4CC[C@@H]5OCC(=O)N[C@@H]5C4)C3)C2)cc1` [Example 59, (4aR,8aS)-6-(2-(4-isopropoxyphenyl)-2,6-diazaspiro[3.4]octane-6-carbonyl)hexahydro-2H-pyrido[4,3-b][1,4]oxazin-3(4H)-one] the figure was 297 nM; with `CC(C)Oc1ccc(N2CC3(CN(C(=O)N4CC[C@@H]5OCC(=O)N[C@@H]5C4)C3)C2)cc1` [Example 60, (4aR,8aS)-6-(6-(4-isopropoxyphenyl)-2,6-diazaspiro[3.3]heptane-2-carbonyl)hexahydro-2H-pyrido[4,3-b][1,4]oxazin-3(4H)-one], 1590 nM. The result for `O=C1CO[C@H]2CCN(C(=O)N3CCC4(C3)CN(c3ccc(N5CCCC5=O)cc3)C4)C[C@H]2N1` [Example 61, (4aR,8aS)-6-(2-(4-(2-oxopyrrolidin-1-yl)phenyl)-2,6-diazaspiro[3.4]octane-6-carbonyl)hexahydro-2H-pyrido[4,3-b][1,4]oxazin-3(4H)-one] reads 2300 nM.

`COc1ccc(N2CC3(CCN(C(=O)N4CC[C@@H]5OCC(=O)N[C@@H]5C4)C3)C2)cc1C` [Example 62, (4aR,8aS)-6-(2-(4-methoxy-3-methylphenyl)-2,6-diazaspiro[3.4]octane-6-carbonyl)hexahydro-2H-pyrido[4,3-b][1,4]oxazin-3(4H)-one] came in with an IC50 of 58.8 nM. With `O=C1CO[C@H]2CCN(C(=O)N3CCC4(C3)CN(c3ccc(Cl)c(C(F)(F)F)c3)C4)C[C@H]2N1` [Example 63, (4aR,8aS)-6-(2-(4-chloro-3-(trifluoromethyl)phenyl)-2,6-diazaspiro[3.4]octane-6-carbonyl)hexahydro-2H-pyrido[4,3-b][1,4]oxazin-3(4H)-one] the figure was 15.9 nM; with `O=C1CO[C@H]2CCN(C(=O)N3CCC4(C3)CN(c3ccnc(F)c3)C4)C[C@H]2N1` [Example 64, (4aR,8aS)-6-(2-(2-fluoropyridin-4-yl)-2,6-diazaspiro[3.4]octane-6-carbonyl)hexahydro-2H-pyrido[4,3-b][1,4]oxazin-3(4H)-one], 4970 nM; with `O=C1CO[C@H]2CCN(C(=O)N3CC4(C3)CN(c3cc(C(F)(F)F)ccc3C(F)(F)F)C4)C[C@H]2N1` [Example 65, (4aR,8aS)-6-(6-(2,5-bis(trifluoromethyl)phenyl)-2,6-diazaspiro[3.3]heptane-2-carbonyl)hexahydro-2H-pyrido[4,3-b][1,4]oxazin-3(4H)-one], 1100 nM. `O=C1CO[C@H]2CCN(C(=O)N3CC4(C3)CN(S(=O)(=O)c3ccc(F)cc3C(F)(F)F)C4)C[C@H]2N1` [Example 66, (4aR,8aS)-6-(6-((4-fluoro-2-(trifluoromethyl)phenyl)sulfonyl)-2,6-diazaspiro[3.3]heptane-2-carbonyl)hexahydro-2H-pyrido[4,3-b][1,4]oxazin-3(4H)-one] displayed an IC50 of 195 nM.

Source of the values: patent US12577257B2, “Heterocyclic compounds” (Hoffmann-La Roche Inc., priority 2018, dated 2026).
